For 12 molecules, EC50 results are on record in ChEMBL document CHEMBL5727862, “Inhibitors of plasma kallikrein and uses thereof” (2020).

For orientation: EC50 means the concentration that produces a half-maximal response.

A short description of the assay: Inhibitory Activity of Exemplary Compounds against Plasma Kallikrein: Example compounds were evaluated for inhibition of the human activated kallikrein enzyme in two formats of an assay employing a fluorogenic peptide substrate. In one assay format, the concentrations of reagents were as follows: 20 mM Tris pH 7.5, 1 mM EDTA, 150 mM sodium chloride, 0.1% PEG-400, 0.1% Triton X-100, 500 pM activated kallikrein enzyme, 300 uM Pro-Phe-Arg-7-amido-4-methylcoumarin substrate. Prior to reaction initiation with substrate, enzyme and inhibitors were preincubated for 30 min at RT. After initiation with substrate, reactions were incubated for 10 min at RT and fluorescence emission at 460 nm from 380 nm excitation measured with a microplate reader. In another assay format, the concentrations of reagents were as follows: 20 mM Tris pH 7.5, 1 mM EDTA, 150 mM sodium chloride, 0.1% PEG-400, 0.1% Triton X-100, 5 pM activated kallikrein enzyme, 300 uM Pro-Phe-Arg-7-amido-4-methylcoumarin substrate. Prior to reaction initiation with substrate, enzyme and inhibitors were preincubated for 30 min at RT. After initiation with substrate, reactions were incubated for 18 h at RT and fluorescence emission at 460 nm from 380 nm excitation measured with a microplate reader.

`CC(C)(C)OC(=O)c1ncc(-c2cc(C3CC3)cn3cc(Cn4cc(C(=O)NCc5ncn6ccc(Cl)c(F)c56)nn4)nc23)s1` had an EC50 below 1 nM.

The molecule `O=C(NCc1ncn2ccc(Cl)c(F)c12)c1cn(Cc2cn3cc(C4CC4)ccc3n2)c(C(=O)O)n1` came in with an EC50 below 1 nM.

As to `CCOC(=O)C1CN(c2cc(C3CC3)cn3cc(Cn4cc(C(=O)NCc5ncn6ccc(Cl)c(F)c56)nn4)nc23)CCO1` (configuration not stated), the EC50 is below 1 nM.

As for `CCOC(=O)c1cc(C2CC2)cn2cc(Cn3cc(C(=O)NCc4ncn5ccc(Cl)cc45)cn3)nc12`, the EC50 was below 1 nM.

`O=C(NCc1cn2c(F)c(Cl)ccc2n1)c1cn(Cc2cn3cc(C4CC4)cc(Cc4nnc(C(=O)O)o4)c3n2)nn1` showed an EC50 below 1 nM.

Turning to `O=C(NCc1cn2c(F)c(Cl)ccc2n1)c1cn(Cc2cn3cc(C4CC4)cc(Cc4nnco4)c3n2)nn1`, the EC50 was below 1 nM.

Molecule `O=C(NCc1ncn2ccc(Cl)c(F)c12)c1cn(Cc2cn3cc(C4CC4)cc(CCl)c3n2)nn1` yielded an EC50 below 1 nM.

In the case of `CCOC(=O)c1cc(C2CC2)cn2cc(Cn3cc(C(=O)NCc4ncn5ccc(Cl)c(F)c45)nn3)nc12`, the EC50 is below 1 nM.

For `CCOC(=O)c1ccn(Cc2cc(C3CC3)cn3cc(Cn4cc(C(=O)NCc5ncn6ccc(Cl)c(F)c56)nn4)nc23)n1`, the EC50 was below 1 nM.

`CC(c1cn2cc(C3CC3)cc(C3CCC(=O)O3)c2n1)n1cc(C(=O)NCc2ncn3ccc(Cl)c(F)c23)nn1` (configuration not stated) came in with an EC50 below 1 nM.

The molecule `O=C(OCc1ccccc1)c1cnn(Cc2cn3cc(C4CC4)cc(CO)c3n2)c1` registered an EC50 below 1 nM.

`O=C(NCc1ncn2ccc(Cl)c(F)c12)c1cn(Cc2cn3nc(C4CC4)cc(CN4CCCC4)c3n2)nn1` registered a half-maximal effective concentration (EC50) below 1 nM.
